{"source": "patent US6242494A", "about": "“Substituted β-amino acid inhibitors of methionine aminopeptidase-2” (Abbott Laboratories, priority 1999, dated 2001)", "note": "Structures can show the parent of a compound that is named as a salt.", "data": [{"target": "T1, methionine aminopeptidase-2 (MetAP2) (Homo sapiens, UniProt P50579)", "T1 construct": "made in house; host or cells: insect cells, baculovirus system (secreted, purified from culture supernatant)", "T1 sequence (P50579 whole entry)": "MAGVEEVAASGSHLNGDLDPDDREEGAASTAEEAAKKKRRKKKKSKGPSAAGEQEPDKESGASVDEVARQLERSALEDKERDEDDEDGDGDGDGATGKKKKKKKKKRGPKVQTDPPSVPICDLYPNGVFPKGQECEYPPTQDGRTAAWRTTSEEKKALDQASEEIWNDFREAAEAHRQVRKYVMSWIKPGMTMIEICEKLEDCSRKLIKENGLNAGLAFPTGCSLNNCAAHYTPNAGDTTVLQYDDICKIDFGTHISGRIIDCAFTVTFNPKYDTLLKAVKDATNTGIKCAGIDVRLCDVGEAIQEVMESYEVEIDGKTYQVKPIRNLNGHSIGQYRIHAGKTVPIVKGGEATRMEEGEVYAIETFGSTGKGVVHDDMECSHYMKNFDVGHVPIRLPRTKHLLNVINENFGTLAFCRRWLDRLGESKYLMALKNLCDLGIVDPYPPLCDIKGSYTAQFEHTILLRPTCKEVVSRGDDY", "assay": "Inhibition of MetAP2 enzyme activity (96-well, Met-Ala-Ser substrate, L-amino acid oxidase/peroxidase/ortho-dianisidine, 450 nm)", "assay_type": "biochemical", "conditions": "IC50, recombinant MetAP2 4 μg/mL, pH 7.4, Met-Ala-Ser substrate, 20 minutes", "experimental": "(§1) The ability of compounds of the present invention to inhibit methionine aminopeptidase 2 was evaluated using the following assay.\n(§2) Assays for MetAP2 enzyme activity and MetAP2 inhibition were performed in 96-well microtiter plates. Compounds to be tested for MetAP2 inhibition were dissolved in dimethyl-sulfoxide at 10 mM and diluted ten-fold in assay buffer ([…], pH 7.4, 100 mM NaCl). Ten microliters of solution of each compound to be tested for inhibition were introduced into each cell of the plate, with each compound being tested in triplicate.\n(§3) The absorbence at 450 nanometers was measured every 20 seconds over a period of twenty minutes using an automaic plate reader (Molecular Devices, CA, USA). The Vmax in mOD/min, calculated for each well was used to represent MetAP2 activity. The IC50 for each inhibitor was obtained by plotting the remaining MetAP2 activity versus inhibitor concentration.", "units": {"IC50": "nM"}, "values": [{"smiles": "C[C@H](NC(=O)C(O)[C@H](N)CC1CCCCC1)C(=O)OCc1ccc(CC(=O)OCC(=O)c2ccccc2)cc1", "note": "(stereo partly drawn) [Example 96, (2RS,3R)-3-Amino-2-hydroxy-4-cyclohexyl)butanoyl-L-alanine-(4-(methyl)phenyl Acetic Acid Phenacyl Ester) Hydrochloride]", "IC50": 2900}, {"smiles": "N[C@H](CC1CCCCC1)C(O)C(=O)NC1CCCCCC1", "note": "(mixture of isomers) [Example 204, (2RS,3R)-3-amino-N-cycloheptyl-4-cyclohexyl-2-hydroxybutanamide Hydrochloride]", "IC50": 3800}, {"smiles": "C[C@H](NC(=O)C(O)[C@H](N)CC1CCCCC1)C(=O)Nc1cc(-c2ccccc2)[nH]n1", "note": "(stereo partly drawn) [Example 68, ((2RS,3R)-3-amino-2-hydroxy-4-cyclohexyl)butanoyl-L-alanyl-(5-phenyl-pyrazole-3)amide hydrochloride]", "IC50": 3800}, {"smiles": "N[C@H](CC1CCCCC1)C(O)C(=O)NCCCCNS(=O)(=O)c1cccc(C(F)(F)F)c1", "note": "(mixture of isomers) [Example 84, (2RS,3R)-3-amino-4-cyclohexyl-2-hydroxy-N-(4-(((3-(trifluoromethyl)phenyl)sulfonyl)amino)butyl)butanamide hydrochloride]", "IC50": 3300}, {"smiles": "COc1ccc(CCNC(=O)C(O)[C@H](N)CC2CCCCC2)cc1", "note": "(mixture of isomers) [Example 195, (2RS,3R)-3-amino-4-cyclohexyl-2-hydroxy-N-(4-methoxyphenethyl)butanamide hydrochloride]", "IC50": 1300}, {"smiles": "Cc1ccc(CNC(=O)C(O)[C@H](N)CC2CCCCC2)cc1", "note": "(mixture of isomers) [Example 187, (2RS,3R)-3-amino-4-cyclohexyl-2-hydroxy-N-(4-methylbenzyl)butanamide hydrochloride]", "IC50": 1200}, {"smiles": "CC(C)(C)OC(=O)CNC(=O)C(O)[C@H](N)CC1CCCCC1", "note": "(mixture of isomers) [Example 126, tert-butyl (2RS,3R)-2-((3-amino-4-cyclohexyl-2-hydroxybutanoyl)amino)acetate hydrochloride]", "IC50": 13000}, {"smiles": "N[C@H](CC1CCCCC1)C(O)C(=O)Nc1ccc(Cl)cc1Cl", "note": "(mixture of isomers) [Example 154, (2RS,3R)-3-amino-4-cyclohexyl-N-(2,4-dichlorophenyl)-2-hydroxybutanamide]", "IC50": 1900}, {"smiles": "CC(C)CCC(C)NC(=O)C(O)[C@H](N)CC1CCCCC1", "note": "(mixture of isomers) [Example 217, (2RS,3R)-3-amino-4-cyclohexyl-N-(1,4-dimethylpentyl)-2-hydroxybutanamide Hydrochloride]", "IC50": 1800}, {"smiles": "N[C@H](CC1CCCCC1)C(O)C(=O)Nc1cccc(C(F)(F)F)c1", "note": "(mixture of isomers) [Example 151, (2RS,3R)-3-amino-4-cyclohexyl-2-hydroxy-N-(3-(trifluoromethyl)phenyl)butanamide]", "IC50": 430}, {"smiles": "CSCC[C@@H](N)C(O)C(=O)NCCc1ccccn1", "note": "(stereo partly drawn) [Example 10, (2RS,3R)-N-(2-(2-pyridyl)ethyl)-3-amino-2-hydroxy-5-(methylthio)pentanamidedihydrochloride]", "IC50": 3600}, {"smiles": "COc1ccc(CCNC(=O)C(O)[C@H](N)CCSC)cc1", "note": "(mixture of isomers) [Example 8, (2RS,3R) N-(2-(4-methoxyphenyl)ethyl)-3-amino-2-hydroxy-5-(methylthio)pentanamide hydrochloride]", "IC50": 2300}, {"smiles": "Cc1ccccc1NC(=O)C(O)[C@H](N)CC1CCCCC1", "note": "(mixture of isomers) [Example 171, (2RS,3R)-3-amino-4-cyclohexyl-2-hydroxy-N-(2-methylphenyl)butanamide hydrochloride]", "IC50": 950}, {"smiles": "N[C@H](CC1CCCCC1)C(O)C(=O)NCCCCNC(=O)OCc1ccccc1", "note": "(stereo partly drawn) [Example 77, (2RS,3R)-3-amino-2-hydroxy-4-cyclohexyl)butanoyl-(4-benzloxycarbonylamino)butylamide hydrochloride]", "IC50": 3300}, {"smiles": "COc1ccccc1NC(=O)C(O)[C@H](N)CC1CCCCC1", "note": "(mixture of isomers) [Example 146, (2RS,3R)-3-amino-4-cyclohexyl-2-hydroxy-N-(2-methoxyphenyl)butanamide]", "IC50": 1500}, {"smiles": "CCOC(=O)C(C)(C)NC(=O)C(O)[C@H](N)CCSCC", "note": "(some centres unmarked) [Example 35, hydrochloride]", "IC50": 110}, {"smiles": "C[C@H](NC(=O)C(O)[C@H](N)CC1CCCCC1)C(=O)Nc1ncc(Br)s1", "note": "(stereo partly drawn) [Example 70, ((2RS,3R)-3-amino-2-hydroxy-4-cyclohexyl)butanoyl-L-alanyl-(5-bromothizole-2)amide hydrochloride]", "IC50": 5400}, {"smiles": "CCOC(=O)[C@H](CF)NC(=O)C(O)[C@H](N)CC1CCCCC1", "note": "(stereo partly drawn) [Example 135, ethyl (2RS,3R,2'R)-2-((3-amino-4-cyclohexyl-2-hydroxybutanoyl)amino)-3-fluoropropanoate trifluoroacetate]", "IC50": 3200}, {"smiles": "N[C@H](CC1CCCCC1)C(O)C(=O)Nc1ccc2c(c1)OCCO2", "note": "(mixture of isomers) [Example 222, (2RS,3R)-3-amino-4-cyclohexyl-N-(2,3-dihydro-1,4-benzodioxin-6-yl)-2-hydroxybutanamide Hydrochloride]", "IC50": 200}, {"smiles": "CCC(=O)OC[C@H](C)NC(=O)C(O)[C@H](N)CC1CCCCC1", "note": "(stereo partly drawn) [Example 48, (2RS,3R,2'S)-N-((2-propionyloxypropyl)-3-amino-b2-hydroxy-$-cyclohexyl)butanamide hydrochloride]", "IC50": 1500}, {"smiles": "COc1ccc([N+](=O)[O-])cc1NC(=O)C(O)[C@H](N)CC1CCCCC1", "note": "(mixture of isomers) [Example 160, (2RS,3R)-3-amino-4-cyclohexyl-2-hydroxy-N-(2-methoxy-5-nitrophenyl)butanamide hydrochloride]", "IC50": 900}, {"smiles": "CCn1nccc1NC(=O)[C@H](C)NC(=O)C(O)[C@H](N)CC1CCCCC1", "note": "(stereo partly drawn) [Example 72, ((2RS,3R)-3-amino-2-hydroxy-4-cyclohexyl)butanoylL-alanyl-(1-ethylpyrazole)amide hydrochloride]", "IC50": 9200}, {"smiles": "COc1cc(NC(=O)C(O)[C@H](N)CC2CCCCC2)cc(OC)c1", "note": "(mixture of isomers) [Example 161, (2RS,3R)-3-amino-4-cyclohexyl-N-(3,5-dimethoxyphenyl)-2-hydroxybutanamide hydrochloride]", "IC50": 620}, {"smiles": "CC(C)CC(C)NC(=O)C(O)[C@H](N)CC1CCCCC1", "note": "(mixture of isomers) [Example 231, (2RS,3R)-3-amino-4-cyclohexyl-N-(1,3-dimethylbutyl)-2-hydroxybutanamide Hydrochloride]", "IC50": 2500}, {"smiles": "N[C@H](CC1CCCCC1)C(O)C(=O)Nc1ccccc1", "note": "(mixture of isomers) [Example 107, (2RS,3R)-3-Amino-4-cyclohexyl-2-hydroxy-N-phenylbutanamide Hydrochloride]", "IC50": 1200}, {"smiles": "Cc1ccc(CCNC(=O)C(O)[C@H](N)CC2CCCCC2)cc1", "note": "(mixture of isomers) [Example 194, (2RS,3R)-3-amino-4-cyclohexyl-2-hydroxy-N-(4-methylphenethyl)butanamide hydrochloride]", "IC50": 1400}, {"smiles": "COC(=O)C(Cc1ccccc1)NC(=O)C(O)[C@H](N)CC1CCCCC1", "note": "(mixture of isomers) [Example 127, methyl (2RS,3R)-2-((3-amino-4-cyclohexyl-2-hydroxybutanoyl)amino)-3-phenylpropanoate hydrochloride]", "IC50": 28000}, {"smiles": "N[C@H](CC1CCCCC1)C(O)C(=O)NCc1ccco1", "note": "(mixture of isomers) [Example 100, (2RS,3R)-3-Amino-4-cyclohexyl-N-(2-furylmethyl)-2-hydroxybutanamide Hydrochloride]", "IC50": 5900}, {"smiles": "N[C@H](CC1CCCCC1)C(O)C(=O)Nc1ccccc1OC(F)(F)F", "note": "(stereo partly drawn) [Example 169, (2RS,3R)-3-amino-4-cyclohexyl-2-hydroxy-N-(2-(trifluoromethoxy)phenyl)butanamide hydrochlordie]", "IC50": 3300}, {"smiles": "N[C@H](CC1CCCCC1)C(O)C(=O)NCCc1cccc(C(F)(F)F)c1", "note": "(mixture of isomers) [Example 200, (2RS,3R)-3-amino-4-cyclohexyl-2-hydroxy-N-(3-(trifluoromethyl)phenethyl)butanamide Hydrochloride]", "IC50": 1500}, {"smiles": "Cc1ccc([N+](=O)[O-])cc1NC(=O)C(O)[C@H](N)CC1CCCCC1", "note": "(mixture of isomers) [Example 184, (2RS,3R)-3-amino-4-cyclohexyl-2-hydroxy-N-(2-methyl-5-nitrophenyl)butanamide hydrochloride]", "IC50": 430}, {"smiles": "CCOC(=O)C1CCN(C(=O)C(O)[C@H](N)CC2CCCCC2)CC1", "note": "(stereo partly drawn) [Example 73, ((2RS,3R)-3-amino-2hydroxy-4-cyclohexyl)butanoyl-(ethylisonipecotate)amide hydrochloride]", "IC50": 6800}, {"smiles": "COc1cc(NC(=O)C(O)[C@H](N)CC2CCCCC2)cc(OC)c1OC", "note": "(mixture of isomers) [Example 225, (2RS,3R)-3-amino-4-cyclohexyl-2-hydroxy-N-(3,4,5-trimethoxyphenyl)butanamide Hydrochloride]", "IC50": 350}]}, {"target": "T1, methionine aminopeptidase-2 (MetAP2)", "assay": "Inhibition of MetAP2 enzyme activity (96-well, Met-Ala-Ser substrate, L-amino acid oxidase/peroxidase/ortho-dianisidine, 450 nm)", "assay_type": "biochemical", "conditions": "recombinant MetAP2 4 μg/mL, pH 7.4, Met-Ala-Ser substrate, 20 minutes", "experimental": "as §1, §2, §3", "units": {"IC50": "nM"}, "values": [{"smiles": "CCOC(=O)CCCNC(=O)C(O)[C@H](N)CC1CCCCC1", "note": "(mixture of isomers) [Example 25, (2RS,3R)-N-(3-(carboethoxy)propyl)-3-amino-2-hydroxy-4-cyclohexyl-butanamide hydrochloride]", "IC50": 1900}, {"smiles": "N[C@H](CC1CCCCC1)C(O)C(=O)NC1CCCc2ccccc21", "note": "(mixture of isomers) [Example 110, (2RS,3R)-3-Amino-4-cyclohexyl-2-hydroxy-N-(1,2,3,4-tetrahydro-1-naphthalenyl)butanamide Hydrochloride]", "IC50": 1000}]}]}
